Literature values, collected in US8324158B2, “Methods for inhibiting CLC-2 channel with GATX2” (Georgia Tech Research Corporation, priority 2006, dated 2012).

Molecular target: ClC-1 (Homo sapiens, UniProt P35523)
Sequence (P35523 whole entry, species assumed): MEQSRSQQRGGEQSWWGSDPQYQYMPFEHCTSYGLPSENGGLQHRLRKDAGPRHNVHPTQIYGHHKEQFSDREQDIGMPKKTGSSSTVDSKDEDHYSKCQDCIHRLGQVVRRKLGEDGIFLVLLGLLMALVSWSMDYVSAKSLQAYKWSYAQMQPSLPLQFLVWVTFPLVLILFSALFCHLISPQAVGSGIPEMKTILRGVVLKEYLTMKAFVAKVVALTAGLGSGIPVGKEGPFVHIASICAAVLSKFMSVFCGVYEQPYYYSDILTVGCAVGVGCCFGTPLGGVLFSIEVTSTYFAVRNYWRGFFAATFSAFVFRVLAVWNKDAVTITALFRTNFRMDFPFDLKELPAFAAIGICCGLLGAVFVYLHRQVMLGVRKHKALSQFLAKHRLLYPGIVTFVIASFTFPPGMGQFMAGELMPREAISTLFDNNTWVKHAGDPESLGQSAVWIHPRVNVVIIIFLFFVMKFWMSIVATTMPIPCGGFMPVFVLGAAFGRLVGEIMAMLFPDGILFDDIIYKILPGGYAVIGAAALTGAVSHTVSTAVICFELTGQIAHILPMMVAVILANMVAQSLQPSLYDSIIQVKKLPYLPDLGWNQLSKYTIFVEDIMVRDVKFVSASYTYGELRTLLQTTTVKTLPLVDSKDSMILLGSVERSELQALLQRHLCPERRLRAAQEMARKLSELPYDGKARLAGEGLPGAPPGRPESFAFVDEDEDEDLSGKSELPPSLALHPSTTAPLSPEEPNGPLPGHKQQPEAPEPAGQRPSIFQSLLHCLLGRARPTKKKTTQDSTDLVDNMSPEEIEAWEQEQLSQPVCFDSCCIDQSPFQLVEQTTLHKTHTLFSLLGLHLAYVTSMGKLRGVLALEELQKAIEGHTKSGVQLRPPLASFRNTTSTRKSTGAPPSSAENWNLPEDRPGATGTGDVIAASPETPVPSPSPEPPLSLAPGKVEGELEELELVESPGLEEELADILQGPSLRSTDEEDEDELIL

Compound: CC(Oc1ccc(Cl)cc1)C(=O)O (stereo not shown) [CPP]
- Kd: 15 µM
